The nature of data set [1]: Schirmer test (filter paper strip in lower fornix) in treated DTS patients. It is filed as in vivo, human. The following applies: MMP-positive patients (Patients 1 and 3). An excerpt:
(§1) Sterile ocular cysteamine drops with a concentration of 0.44% were used in a dosage schedule of one drop per eye, four times per day.
(§2) Four patients were self-treated with cysteamine ocular drops as described above for 30-37 days. Patients were requested to fill out a diary sheet daily and to return weekly for follow-up. Three of the four patients filled out the diary that included a 3-point Likert scale of symptoms, number of times drops were used daily, and a space for other comments. […] Patients were tested for MMP using the INFLAMMADRY test (see Kaufman) and the Schirmer test (in which a filter paper strip is placed in the lower fornix of the eyelid to absorb tears), with and without anesthesia, using Oxford grading (observation of conjunctiva and cornea using BIO-GLO fluorescein strips) at entry, and Schirmer with and without anesthesia on the final visit.

For data set [2] the following is noted: administered for conditions such as cystinosis; available cysteamine products; cited from earlier work.
Data set [3] can be described thus: Self-treatment of dysfunctional tear syndrome patients with cysteamine ocular drops: symptom diary (3-point Likert scale), weekly interviews, patient reports. It is filed as in vivo, human.
From the text: as §1, §2
Four patients (Patients 1, 2, 3, and 4) were tested. […] Among the patients testing MMP-positive, there was an improvement in Likert-scale and other comments. […] Patients 1 and 3 returned for 4 weekly visits; Patient 2 returned for 5 weekly visits.
Patient 4 was not tested for MMP, but presented with symptoms of DTS, including years of pain and poor response to other treatments. On the theory the MMP is involved or a causative factor in recurrent epithelial erosion and dry eye, they were treated using the same regimen noted above for Patients 1, 2, and 3. Following treatment, Patient 4 reports being “cured,” and is apparently free of significant symptoms.

For data set [4] the following is noted: cited from earlier work.
In data set [5] the test system is intracellular cystine levels in circulating leukocytes. As to conditions: cited from earlier work.
[6] abbreviates: children with cystinosis, enteral administration.

For `NCCS` [cysteamine, Cysteamine (HS—CH2—CH—2—NH2)], the “Schirmer tests at the end of the study” value in data set [1] is given as “improvement in Schirmer tests”. The ocular adverse effects entry in data set [2] is “slinging and stippling erosion of the cornea”. Besides, the “objective and subjective symptoms of Dry Eye Disease (DTS, dry eye, keratitis sicca)” value in data set [3] (MMP positive patients, 0.44% drops, one drop per eye, four times per day) is reported as “decreases”. Further, the “Likert-scale (3-point scale of symptoms) and other diary comments” value in data set [3] (MMP-positive patients (Patients 1 and 3), 0.44% drops four times per day, 30-37 days) is “improvement”. Further, the “symptoms reported at interview during each weekly visit” value in data set [3] (MMP-positive patients (Patients 1 and 3), FIGS. 1 and 2) was “changes in symptoms indicative of improvement”. Besides, the “need for artificial tears after starting treatment” value in data set [3] (Patient 2, MMP-negative) is listed as “able to go without artificial tears for a majority of the four weeks”. Further, in data set [3] (Patient 2, MMP-negative, no objective findings of DTS), the “3-point Likert scale of symptoms” value is “did not report changes”. Besides, the “patient-reported outcome following treatment” value in data set [3] (Patient 4, not tested for MMP, recurrent epithelial erosion and dry eye, same regimen) is reported as “cured”. Also, the unpleasant side effects result in data set [4] (high systemic dosing levels and frequencies, CYSTAGON package insert) is “gastrointestinal distress and body odor”. Further, the “metabolism and clearance from the body” value in data set [4] (systemic administration) is on record as “converted to taurine in a matter of hours”. Moreover, the “intracellular cystine levels in circulating leukocytes” value in data set [5] (Dohil et al. 2006) is “lowering of intracellular cystine levels”. Moreover, in data set [5] (setting [6]), the “lowering of leukocyte cystine levels” value is “prolonged efficacy” and the plasma cysteamine levels result was “increased plasma cysteamine levels”.

The record behind these values is patent publication US20210196652A1, “USE OF CYSTEAMINE AND DERIVATIVES THEREOF TO TREAT DYSFUNCTIONAL TEAR SYNDROME (DTS)” (MESHABERASE, LLC, priority 2019, published 2021).
